Results as given in paper PMC7036548 (Cellular and Molecular Gastroenterology and Hepatology, 2019).

Columns and labels:
[1] = biological target: T1, DOR-eGFP (Mus musculus, UniProt P32300); experiment: DOR-eGFP internalization, confocal imaging; conditions: agonist, 1 μmol/L; blocked by naltrindole
[2] = biological target: human MOR (CHO cells) (Homo sapiens, UniProt P35372); experiment: […]GTPγS binding, CHO membranes; type: biochemical; conditions: 10 μmol/L GDP, pH 7.4, RT; no G protein activation
Chain of human MOR (CHO cells) (P35372 whole entry): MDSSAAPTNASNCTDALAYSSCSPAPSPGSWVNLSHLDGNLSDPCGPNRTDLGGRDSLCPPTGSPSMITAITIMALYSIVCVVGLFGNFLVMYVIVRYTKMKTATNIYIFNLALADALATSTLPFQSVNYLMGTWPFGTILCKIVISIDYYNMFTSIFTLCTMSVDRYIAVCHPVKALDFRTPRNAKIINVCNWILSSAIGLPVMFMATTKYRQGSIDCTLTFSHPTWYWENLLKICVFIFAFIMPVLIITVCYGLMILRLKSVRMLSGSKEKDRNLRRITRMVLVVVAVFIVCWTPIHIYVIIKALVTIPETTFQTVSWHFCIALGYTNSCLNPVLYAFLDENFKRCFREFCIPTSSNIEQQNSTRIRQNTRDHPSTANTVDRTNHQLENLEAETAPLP

[3] = biological target: T1, DOR-eGFP; experiment: DOR-eGFP internalization, confocal imaging; conditions: agonist; control 73.8 ± 2.6%; myenteric neurons of colon

T1 sequence (P32300 whole entry): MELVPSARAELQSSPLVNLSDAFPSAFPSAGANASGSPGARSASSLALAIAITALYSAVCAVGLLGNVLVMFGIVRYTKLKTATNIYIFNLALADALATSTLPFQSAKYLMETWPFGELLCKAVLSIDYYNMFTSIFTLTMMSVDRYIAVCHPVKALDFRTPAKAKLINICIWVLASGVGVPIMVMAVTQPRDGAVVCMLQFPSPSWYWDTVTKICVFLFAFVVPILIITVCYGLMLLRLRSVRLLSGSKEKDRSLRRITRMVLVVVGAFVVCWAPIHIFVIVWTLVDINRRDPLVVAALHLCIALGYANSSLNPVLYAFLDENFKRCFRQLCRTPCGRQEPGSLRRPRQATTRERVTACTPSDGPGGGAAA

CCOC(=O)C1(CCc2ccccc2)CCN(Cc2ccc(NC(C)=O)cc2)CC1 [CYM51010]
DOR-eGFP internalization, confocal imaging [1]: CYM51010 promoted robust internalization of DOR-eGFP in both myenteric and submucosal neurons
[35S]GTPγS binding, CHO membranes [2]: increase in G protein activation only in DOR expressing CHO cells

C=CCN1C[C@H](C)N([C@H](c2ccc(C(=O)N(CC)CC)cc2)c2cccc(OC)c2)C[C@H]1C [SNC80]
% cell surface DOR-eGFP at 1 μmol/L [3]: 41.9 ± 2.9%
